From patent publication US7589232B2, “Alkynyl aryl carboxamides” (Laboratories Serono S.A., priority 2003, dated 2009)
Where a name gives a salt, the structure may show the parent alone.

Legend:
GLEPP-1 = molecular target: T1, GLEPP-1 (Homo sapiens, UniProt Q16827); assay: PTP Enzyme Assay (DiFMUP), GLEPP-1; type: biochemical; conditions: 30 μM DiFMUP substrate; catalytic core of human recombinant PTP; triplicates; read-out: IC50 value in respect of GLEPP-1
T1 construct: using the catalytic core of a human recombinant PTP as the enzyme
T1 sequence (Q16827 938-1195 limits assumed): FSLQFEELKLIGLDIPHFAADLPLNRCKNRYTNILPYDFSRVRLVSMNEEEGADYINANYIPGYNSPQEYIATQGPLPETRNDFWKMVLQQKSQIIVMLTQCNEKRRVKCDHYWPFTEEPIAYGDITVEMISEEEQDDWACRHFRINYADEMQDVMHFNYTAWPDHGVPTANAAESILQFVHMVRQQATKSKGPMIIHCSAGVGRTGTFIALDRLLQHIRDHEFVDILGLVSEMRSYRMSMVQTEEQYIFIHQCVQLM
Experimental: (§1) The PTP Enzyme Assay aims at determining the extent of inhibition of PTPs, e.g. of PTP1B, SHP-1, SHP-2, GLEPP-1 or PTP-H1 in the presence of a test compound of formula (I) or (I′). The inhibition is illustrated by IC50 values which denote the concentration of test compound necessary to achieve an inhibition of 50% of said PTP's using the following concentration of the PTP substrate DiFMUP: • 5 μM DiFMUP for PTP1B and PTP-H1; • 20 μM DiFMUP for SHP-1 and SHP-2. • 30 μM DiFMUP for GLEPP-1. a) PTPs Cloning
(§2) The DiFMUP assay allows to follow the dephosphorylation of DiFMUP (6,8-DiFluoro-4-MethylUmbelliferyl Phosphate)—which is the PTP substrate—mediated by PTP into its stable hydrolysis product, i.e. DiFMU (6,8-difluoro-7-hydroxy coumarin). Due to its rather low pKa and its high quantum yield, DiFMU allows to measure both acidic and alkaline phosphatase activities with a great sensitivity.
(§3) Assays were performed in a 96 well plate format, using the catalytic core of a human recombinant PTP as the enzyme and 6,8-DiFluoro-4-MethylUmbelliferyl Phosphate (DiFMUP, Molecular Probes, D-6567) as a substrate. Compounds to be tested were dissolved in 100% DMSO at a concentration of 2 mM. Subsequent dilutions of the test compounds (to yield a concentration of 100, 30, 10, 3, 1, 0.3, 0.1, 0.03, 0.01, 0.001 μM) wore performed in 60% DMSO manually. 8 μl of diluted compound or vehicle (60% DMSO=control) was distributed to a black Costar 96 well plate. 42 μl of human recombinant PTP enzyme diluted in assay buffer (20 mM Tris HCl pH 7.5, 0.01% IGEPAL CA-630, 0.1 mM ethylenediaminetetracetic acid, 1 mM DL-Dithiothreitol) can be added to the dilutions of compound or vehicle (distributed to a black Costar 96 well plate), followed by 50 μl of DiFMUP diluted in the assay buffer. The reaction ran for 30 minutes at room temperature before reading the fluorescence intensity (integral or intensity) on a Perkin-Elmer Victor 2 spectrofluorimeter (excitation of 6,8-difluoro-7-hydroxy coumarin is at 355 nm, the emission at 460 nm, for 0.1 s). The percentage of inhibition is determined by measuring the relative fluorescence ion absence of a test compound (PTP inhibitor), i.e. with the solvent alone (5% DMSO). The IC50 values for inhibition were determined in triplicates.

SHP-1 = molecular target: T2, SHP-1 (Homo sapiens, UniProt P29350); assay: PTP Enzyme Assay (DiFMUP), SHP-1; type: biochemical; conditions: 20 μM DiFMUP substrate; catalytic core of human recombinant PTP; triplicates; read-out: IC50 value in respect of SHP-1
T2 construct: using the catalytic core of a human recombinant PTP as the enzyme
T2 sequence (P29350 244-515 limits assumed): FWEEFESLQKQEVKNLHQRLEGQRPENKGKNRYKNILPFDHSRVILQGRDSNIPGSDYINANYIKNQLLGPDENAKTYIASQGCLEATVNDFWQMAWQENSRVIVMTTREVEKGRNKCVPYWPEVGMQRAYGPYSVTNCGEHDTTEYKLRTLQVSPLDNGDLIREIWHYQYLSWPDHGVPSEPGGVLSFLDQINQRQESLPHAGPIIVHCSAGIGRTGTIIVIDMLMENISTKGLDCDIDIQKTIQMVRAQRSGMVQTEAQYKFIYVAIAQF
Experimental: as §1, §2, §3

db/db mice = assay: In vivo assay in db/db mice (postprandial glycemia); conditions: 4 hrs after drug administration, expressed as a percentage of control (vehicle, Group 1)
Experimental: The following assay aims at determining the anti-diabetic effect of the test compounds of formula (I) or (I′) in a model of postprandial glycemia in db/db mice, in vivo.
A total of 18 db/db mice (about 8-9 weeks; obtained from IFFACREDO, l'Arbreste, France) were fasted during 20 hours.
3 groups, each consisting of 6 animals were formed: • Group 1: The animals were administered (per os) a dose of 10 mL/kg of vehicle (control). • Group 2: The animals were administered (per os) a dose of 30 mg/kg of the test compound according to formula (I) solubilized in the vehicle. • Group 3: The animals were administered (per os) a dose of 100 mg/kg of the test compound according to formula (I) solubilized in the vehicle.
After oral administration of the compounds of formula (I) or (I′) solubilized or suspended in CarboxyMethylCellulose (0.5%), Tween 20 (0.25%) in water as vehicle, the animals had access to commercial food (D04, UAR, Villemoisson/Orge, France) ad libitum. The diabetic state of the mice was verified by determining the blood glucose level before fasting. Blood glucose and serum insulin levels were then determined 4 hrs after drug administration.
The determination of the blood glucose level was performed using a glucometer (Ascensia Dex^2, Bayer, ref 3956C).
The determination of the Insulin level was performed using an ELISA kit (Mercodia, ref 10-1149-10).
Changes in blood glucose and serum insulin of drug treated mice were expressed as a percentage of control (group 1: vehicle treated mice).

SHP-2 = molecular target: T3, SHP-2 (Homo sapiens, UniProt Q06124); assay: PTP Enzyme Assay (DiFMUP), SHP-2; type: biochemical; conditions: 20 μM DiFMUP substrate; catalytic core of human recombinant PTP; triplicates; read-out: IC50 value in respect of SHP-2
T3 construct: using the catalytic core of a human recombinant PTP as the enzyme
T3 sequence (Q06124 247-517 limits assumed): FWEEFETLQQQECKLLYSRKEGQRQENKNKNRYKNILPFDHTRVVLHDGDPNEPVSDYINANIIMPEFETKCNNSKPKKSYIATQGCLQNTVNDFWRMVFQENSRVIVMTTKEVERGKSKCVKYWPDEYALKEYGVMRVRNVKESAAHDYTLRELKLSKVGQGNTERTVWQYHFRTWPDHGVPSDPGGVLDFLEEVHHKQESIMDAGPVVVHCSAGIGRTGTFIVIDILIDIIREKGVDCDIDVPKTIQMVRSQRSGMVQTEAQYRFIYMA
Experimental: as §1, §2, §3

PTP1B = molecular target: T4, PTP1B (Homo sapiens, UniProt P18031); assay: PTP Enzyme Assay (DiFMUP), PTP1B; type: biochemical; conditions: 5 μM DiFMUP substrate; catalytic core of human recombinant PTP; triplicates; read-out: IC50 value in respect of PTP1B
T4 construct: using the catalytic core of a human recombinant PTP as the enzyme; made in house
T4 sequence (P18031 3-277 limits assumed): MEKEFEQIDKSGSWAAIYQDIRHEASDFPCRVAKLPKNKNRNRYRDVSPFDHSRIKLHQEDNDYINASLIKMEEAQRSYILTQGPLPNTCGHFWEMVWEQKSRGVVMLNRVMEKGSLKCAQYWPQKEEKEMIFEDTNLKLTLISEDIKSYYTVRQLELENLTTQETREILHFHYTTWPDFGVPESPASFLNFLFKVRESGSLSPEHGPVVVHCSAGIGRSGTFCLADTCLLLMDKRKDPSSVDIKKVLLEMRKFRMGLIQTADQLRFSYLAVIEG
Experimental: as §1
The cloning and expression of the catalytic domain e.g. of PTP1B, may be performed as described in J. Biol. Chem. 2000, 275(13), pp 9792-9796.
as §2, §3

PTP-H1 = molecular target: T5, PTP-H1 (Homo sapiens, UniProt P26045); assay: PTP Enzyme Assay (DiFMUP), PTP-H1; type: biochemical; conditions: 5 μM DiFMUP substrate; catalytic core of human recombinant PTP; triplicates; read-out: IC50 value in respect of PTP-H1
T5 construct: using the catalytic core of a human recombinant PTP as the enzyme
T5 sequence (P26045 646-901 limits assumed): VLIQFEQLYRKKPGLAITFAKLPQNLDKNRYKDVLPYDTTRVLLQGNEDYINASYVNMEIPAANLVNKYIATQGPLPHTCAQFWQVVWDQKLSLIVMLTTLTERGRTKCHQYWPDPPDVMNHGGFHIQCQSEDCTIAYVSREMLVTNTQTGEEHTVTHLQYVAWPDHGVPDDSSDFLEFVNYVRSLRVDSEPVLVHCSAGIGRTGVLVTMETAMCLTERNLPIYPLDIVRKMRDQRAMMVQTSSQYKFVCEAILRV
Experimental: as §1, §2, §3

Row | IC50 (GLEPP-1) [nM] | IC50 (SHP-1) [nM] | IC50 (SHP-2) [nM] | IC50 (PTP1B) [nM] | IC50 (PTP-H1) [nM] | Structure (SMILES) | Decrease in blood glucose (db/db mice; Group 2: 30 mg/kg per os) [%] | Decrease in serum insulin (db/db mice; Group 2: 30 mg/kg per os) [%] | Decrease in blood glucose (db/db mice; Group 3: 100 mg/kg per os) [%] | Decrease in serum insulin (db/db mice; Group 3: 100 mg/kg per os) [%]
1 | 610 | 1200 | 490 | 490 | 3370 | CCCCCCCCC#Cc1ccc(CN(C(=O)CCC2CCCC2)c2ccc(O)c(C(=O)O)c2)cc1 [Example 2, 5-[(3-cyclopentylpropanoyl)(4-dec-1-ynylbenzyl)amino]-2-hydroxybenzoic acid. N-methyl-D-glucamine (i.e. 1-deoxy-1-(methylamino)glucitol) salt] | 28 | 84 | 58 | 88
2 | 210 | 1600 | 1400 | 290 | 5700 | CCCCCCCCC#Cc1ccc(CN(Cc2ccc(OCC(=O)O)c(C(=O)O)c2)C(=O)/C=C/c2ccccc2)cc1 [Example 16, 2-(carboxymethoxy)-5-({(4-dec-1-ynylbenzyl)[(2E)-3-3-phenylprop-2-enoyl]amino}methyl)benzoic acid] |  |  |  | 
3 | 1580 | 3700 | 1900 | 490 | 9900 | CCCCc1ccc(C#Cc2ccc(CN(C(=O)Cc3cccs3)c3ccc(F)c(C(=O)O)c3)cc2)cc1 [Example 68, 5-[{4-[(4-butylphenyl)ethynyl]benzyl}(2-thienylacetyl)amino]-2-fluorobenzoic acid, N-methyl-D-glucamine (i.e. 1-deoxy-1-(methylamino)glucitol) salt] |  |  |  | 
4 | 990 | 3000 | 2200 | 970 | 6300 | CCCCc1ccc(C#Cc2ccc(CN(C(=O)C(C)(C)C)c3ccc(C(=O)O)c(O)c3)cc2)cc1 [Example 76, 4-[{4-[(4-butylphenyl)ethynyl]benzyl}(2,2-dimethylpropanoyl)amino]-2-hydroxybenzoic acid, N-methyl-D-glucamine (i.e. 1-deoxy-1-(methylamino)glucitol) salt] |  |  |  | 
